From patent US20110306631A1, “TRIPLE SUBSTITUTED PHENANTHROLINE DERIVATIVES FOR THE TREATMENT OF NEURODEGENERATIVE OR HAEMATOLOGICAL DISEASES OR CONDITIONS, OR CANCER” (NOSCIRA, S.A., priority 2008, published 2011)

Experiments:
[1] = test system: SH-SY5Y human neuroblastoma cells; experiment: Protection against 6-OHDA-induced cell death (LDH); assay type: cell-based; details: preincubated 2 hours before 6-OHDA 75 μM during 16 hours, 10% Foetal bovine serum
Source text: The aim of this experiment is to determine the protective effect of the compounds of formula (I) against the toxicity caused by 6-OHDA. This toxin induces a cell death similar to which occurs in Parkinson's disease, destroying dopaminergic neurons (“MPTP and 6-hydroxydopamine-induced neurodegeneration as models for Parkinson's disease: neuroprotective strategies”; Grunblatt E, et al.; J Neurol. 2000 April; 247 Suppl 2:II95-102).
Two or three days before the experiment, the SH-SY5Y human neuroblastoma cells are seeded into 96-well culture plate at a density of 10^4 cells/well. Cells are exposed to the treatment with 6-OHDA and, finally, cell death is measured by LDH quantification. As positive control we used NAC.
NAC and the compound of formula (I) are preincubated during 2 hours before the treatment with 6-OHDA 75 μM during 16 hours. The assay is performed in medium containing 10% Foetal bovine serum.
For each compound the minimum concentration of compound of formula (I) at which a neuroprotective effect is shown.

[2] = test system: SH-SY5Y human neuroblastoma cells; experiment: Protection against hydrogen peroxide-induced cell death (LDH); assay type: cell-based; details: compound 1 h before H2O2 100 μM during 24 h
Procedure: The aim of this assay is to determine the neuroprotective effect of the compounds of formula (I), when human neuroblastoma cells are exposed to oxidative stress induced by hydrogen peroxide, which is highly deleterious to the cell and its accumulation causes oxidation of cellular targets such as DNA, proteins, and lipids leading to mutagenesis and cell death.
SH-SY5Y human neuroblastoma cells are seeded into 96-well culture plate at a density of 10^4 cells/well. Cells are exposed to different concentrations of the compound one hour before the treatment with H2O2 100 μM during 24 h. 5 mM N-acetylcysteine (NAC), a known anti-oxidant agent was used as a positive control, and preincubated 1 hour before the treatment with H2O2. After 24 h, the medium is removed and cells attached to the bottom of the well are lysed by adding 50 μl of Triton X-100 1% in Krebs-Hepes during 5 minutes at room temperature. For LDH release quantification, Roche cytotoxicity detection kit (Cat. No. 11 644 793 001) was used.

SH-SY5Y cells = experiment: Neuroprotection against Aβ25-35 toxicity (LDH); assay type: cell-based, human; details: pre-treated 1 hour, then 24 hours 200 μM Aβ25-35
Procedure: In order to evaluate potential neuroprotection of compounds, SH-SY5Y cells, cultured in 96-well plates, were pre-treated for 1 hour with the compound at different concentrations and then exposed 24 hours to 200 μM Aβ25-35 (Neosystem) to induce extensive oxidative stress and cell death. The ability of the compound of protecting against this toxicity is then evaluated by measuring intracellular LDH, using the colorimetric LDH assay.
It is widely accepted that the neurotoxic activity of Aβ resides within amino acids 25-35 (see e.g. Yankner B A et al., (1990) Neurotrophic and neurotoxic effects of amyloid β protein: reversal by tachykinin neuropeptides; Science 250:279-282).

[3] = test system: Aβ (1-40) secretion, CHO7W (stably transfected with human APP751 wt cDNA); experiment: Inhibition of Aβ(1-40) secretion (ELISA of cellular supernatants); assay type: cell-based; details: CHO7W cells, Aβ(1-40) in supernatants
Source text: To quantitate Aβ secretion ELISA-based method was used. The assay consists in detection of antigen by selective monoclonal anti-Aβ-antibodies at two different epitopes forming a “Sandwich-complex”, that is detected by colorimetric measure due to the binding of a secondary antibody conjugated with peroxidase that catalyses the conversion of a substrate or chromogen, TMB, into a coloured product, directly proportional to the peptide quantity in the sample. The Aβ production has been analyzed by ELISA, using a colorimetric commercial kit: H-amuloid b-30 ELISA (The Genetics Company).
Aβ (1-40) were quantified from cellular supernatants. An APP-transfected cell line has been employed for the experiments: CHO7W (stably transfected with human APP751 wt cDNA). The cells were grown in a culture medium consisting of DMEM supplemented with 2% Fetal bovine serum, 1% penicillin-streptomycin, 1% L-glutamine and 200 μg/ml G418. Cells are seeded in 96-well culture microplate, at 5000 cells/well and treatment with different compounds at different concentrations is performed 24 hour after seeding.

[4] = test system: SH-SY5Y human neuroblastoma cells; experiment: Toxicity: cell viability by LDH activity release; assay type: cell-based; details: 24 h
Procedure: The potential effects on cell viability of the tested compounds were assessed in SH-SY5Y human neuroblastoma cells, by quantification of Lactate dehydrogenase (LDH) activity release. SH-SY5Y human neuroblastoma cells were seeded into 96-well culture plates at 10^4 cells/well. The medium was then removed and the cells incubated with different concentrations of the compounds during 24 h. […] After 24 h, the medium was removed and cells attached to the bottom of the well were lysed by adding 50 μl of Krebs-Hepes; Triton X-100 1% during 5 minutes at room temperature. For LDH release quantification, the Roche cytotoxicity detection kit (Cat. No. 11 644 793 001) was used. The LDH activity was measured by its absorbance at 492 nm with reference wavelength 620 nm.
In Table 2, for each compound the maximum concentration at which cell viability was tested is indicated in the second column. In the third column, it is indicated whether at this maximum concentration the compound affected or not cell viability (>20% of cell death).

[5] = maximum concentration tested 1000 μM
[6] = maximum concentration tested 100 μM

Compound | Protection 6-OHDA (minimum concentration at which a neuroprotective effect is shown) [1] | Protect H2O2 (minimum concentration for which protection against H2O2 was determined) [2] | Protection β-Amiloyd (minimum concentration showing neuroprotection against Aβ25-35 toxicity) (SH-SY5Y cells) | inhibition Aβ secretion (minimum concentration at which the compound inhibits beta-amyloid secretion) [3] | Yes/No: compound affected cell viability at maximum concentration tested [4, 5] | Yes/No: compound affected cell viability at maximum concentration tested [4, 6]
COc1cc(/C=N/O)nc2c1c(F)cc1cccnc12 [B, 5-fluoro-4-methoxy-[1,10]-phenanthroline-2-carbaldehyde oxime] | 0.05 µM | 0.05 µM | 5 µM | 1 µM | N (affected or not cell viability (>20% of cell death)) | –
COc1cc2cccnc2c2nc(/C=N/O)cc(SC)c12 [A, 5-methoxy-4-methylsulfanyl-[1,10]-phenanthroline-2-carbaldehyde oxime] | 0.05 µM | 0.05 µM | 5 µM | 0.1 µM | – | Y (affected or not cell viability (>20% of cell death))
COCCOc1cc2cccnc2c2nc(/C=N/O)cc(OC)c12 [C, 4-methoxy-5-(2-methoxy-ethoxy)-[1,10]-phenanthroline-2-carbaldehyde oxime] | 0.5 µM | 0.005 µM | 5 µM | 0.1 µM | N (affected or not cell viability (>20% of cell death)) | –
CSc1cc(/C=N/O)nc2c1c(C)cc1cccnc12 [D, 5-methyl-4-methylsulfanyl-[1,10]phenanthroline-2-carbaldehyde oxime] | 0.05 µM | 0.5 µM | 0.5 µM | 1 µM | N (affected or not cell viability (>20% of cell death)) | –
COc1cc2c(SC)cc(/C=N/O)nc2c2ncccc12 [E, 6-methoxy-4-methylsulfanyl-[1,10]phenanthroline-2-carbaldehyde oxyme] | 0.5 µM | 0.05 µM | 10 µM | 10 µM | – | Y (affected or not cell viability (>20% of cell death))
COc1cc2c(=O)cc(/C=N/O)[nH]c2c2ncccc12 [F, 6-methoxy-4-oxo-1,4-dihydro-[1,10]phenanthroline-2-carbaldehyde oxime] | 10 µM | – | – | – | N (affected or not cell viability (>20% of cell death)) | –
